Values after ≈ are worked out from the molar mass of the structure shown. Values joined by “and” are separate entries in the source; they are usually repeats but may differ in a detail not shown here. Equal values may be shown once. Residues, ends and D or L forms follow the SMILES beside them. Some results are limits rather than exact numbers.

Series [1] has as its system P. aeruginosa ATCC 27853. Description: Neutropenic mouse bloodstream infection model. The conditions noted are these: single IV dose 4 mg/kg; for Log10 CFU/mL blood at 4 h, Mean / Δlog10 CFU/mL blood (mean) / Log10 CFU/mL blood at 4 h, single mouse: 4 h; for Δlog10 CFU/mL blood (mean): treated minus control, mean of replicates; for Δlog10 CFU/mL blood (mean) / Log10 CFU/mL blood at 4 h, single mouse / Delta Log10 CFU/mL blood at 4 h, single mouse: 4 mg/kg; for Delta Log10 CFU/mL blood at 4 h, single mouse: treated mouse minus mean of vehicle mice. The class given is in vivo. An outline of the steps:
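Female Swiss mice made neutropenic with cyclophosphamide (150 mg/kg day −4, 100 mg/kg day −1), infected IV with 50 µL of 4 × 10^8 CFU/mL. Lipopeptide 4 mg/kg (free base) IV at 2 h post-inoculation, n = 3. Efficacy = Δlog10 CFU/mL blood versus saline at 4 h post-dose.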

The test system of series [2] is Swiss mice, kidney. Description: Nephrotoxicity in mice (kidney histopathology). Format: in vivo, mouse. The conditions noted are these: for Kidney histopathology (SQS Score): 72 mg/kg/d subcutaneously in six divided doses every 2 h, n = 3; for Kidney histopathology, mice with the SQS score: mouse, in vivo. An outline of the steps: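 Female Swiss mice (7-week-old, 22–28 g) received lipopeptides in saline either s.c. at 12 mg/kg ×6 every 2 h (total 72 mg/kg, n = 3) or i.p. at 20 or 25 mg/kg ×6 every 2 h (total 120 mg/kg, n = 6; 150 mg/kg, n = 3). Right kidney collected 20 h after last dose, fixed in 10% buffered formalin (pH 7.4), histology scored blinded.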

The subject of series [3] is A. baumannii ATCC 19606. Format: cell-based, Acinetobacter baumannii. The following applies: ATCC 19606. A digest of the protocol:
(§1)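 Read-out is the minimum inhibitory concentration, obtained by serially diluting compound in cation-adjusted Mueller–Hinton medium and exposing each isolate in microdilution format.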

The test system of series [4] is A. baumannii FADDI-AB030. Format: cell-based, Acinetobacter baumannii. The following applies: FADDI-AB030. A digest of the protocol:
(§2)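 Compounds were serially diluted in CaMHB, bacteria were added, and the lowest inhibitory concentration was recorded after broth microdilution testing.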

In series [5] the test system is A. baumannii FADDI-AB034. The class given is cell-based, Acinetobacter baumannii. The conditions noted are these: FADDI-AB034. An outline of the steps: as §2
For series [6], the system named is P. aeruginosa ATCC 27853. The class given is cell-based, Pseudomonas aeruginosa. The following applies: ATCC 27853. A digest of the protocol: as §1
In series [7] the test system is P. aeruginosa FADDI-PA025. The class given is cell-based, Pseudomonas aeruginosa. The following applies: FADDI-PA025. A digest of the protocol: as §2
In series [8] the test system is P. aeruginosa FADDI-PA038. Format: cell-based, Pseudomonas aeruginosa. The following applies: FADDI-PA038. A digest of the protocol:
as §2

Series [9] relates to K. pneumoniae FADDI-KP032. The class given is cell-based, Klebsiella pneumoniae. The conditions noted are these: FADDI-KP032. A digest of the protocol:
as §2

The test system of series [10] is K. pneumoniae FADDI-KP065. The class given is cell-based, Klebsiella pneumoniae. The following applies: FADDI-KP065. A digest of the protocol:
as §2

For the molecule `CCCCCCCC(=O)N[C@@H](CCN)C(=O)N[C@H](C(=O)N[C@@H](CCN)C(=O)N[C@H]1CCNC(=O)[C@H]([C@@H](C)O)NC(=O)[C@H](CCN)NC(=O)[C@H](CCN)NC(=O)[C@H](CC(C)C)NC(=O)[C@@H]([C@H](C)O)NC(=O)[C@H](CCN)NC1=O)[C@@H](C)O` [Lipopeptide F228] (HELM PEPTIDE1{[CCCCCCCC(=O)[*:2]].[Dab].T.[Dab].[Dab].[Dab].[dT].L.[Dab].[Dab].T}$PEPTIDE1,PEPTIDE1,5:R3-11:R2$$$V2.0), in series [1], the “Log10 CFU/mL blood at 4 h, Mean” value was 4.13 Log10 CFU/mL blood; the “Δlog10 CFU/mL blood (mean)” value is recorded as −3.39 log10 CFU/mL blood; the “Log10 CFU/mL blood at 4 h, single mouse” value was 3.99 Log10 CFU/mL blood and 4.11 Log10 CFU/mL blood and 4.28 Log10 CFU/mL blood; the “Delta Log10 CFU/mL blood at 4 h, single mouse” value is -3.52 Log10 CFU/mL blood and -3.40 Log10 CFU/mL blood and -3.24 Log10 CFU/mL blood. Besides, in [2], the “Kidney histopathology (SQS Score)” value is on record as “+1 (SQS + 1 = mild damage (overall score, 1 to <15))” and the “Kidney histopathology, mice with the SQS score” value is recorded as 1/3. In addition, the “MIC A. baumannii ATCC 19606” value in series [3] was over 32 µg/mL. In addition, the “MIC A. baumannii FADDI-AB030” value in series [4] came to 16 µg/mL (≈ 14 µM). In addition, in [5], the “MIC A. baumannii FADDI-AB034” value was 32 µg/mL (≈ 28 µM). In series [6], the “MIC P. aeruginosa ATCC 27853” value was found to be 0.25 µg/mL (≈ 0.219 µM). In series [7], the “MIC P. aeruginosa FADDI-PA025” value came out at 32 µg/mL (≈ 28 µM). In [8], the “MIC P. aeruginosa FADDI-PA038” value was 32 µg/mL (≈ 28 µM). The “MIC K. pneumoniae FADDI-KP032” value in series [9] worked out at 2 µg/mL (≈ 1.75 µM). In addition, the “MIC K. pneumoniae FADDI-KP065” value in series [10] was found to be 16 µg/mL (≈ 14 µM).

For the molecule `CC[C@@H]1NC(=O)[C@@H](CC(C)C)NC(=O)[C@H](CCN)NC(=O)[C@@H](NC(=O)[C@H](CN)NC(=O)[C@@H](NC(=O)[C@H](CCN)NC(=O)c2ccc(F)cc2Cl)[C@@H](C)O)CCNC(=O)[C@H]([C@@H](C)O)NC(=O)[C@H](CCN)NC(=O)[C@H](CCN)NC1=O` [Lipopeptide F449] (HELM PEPTIDE1{[O=C(c1ccc(F)cc1Cl)[*:2]].[Dab].T.[NC[C@H](N[*:1])C(=O)[*:2]].[Dab].[Dab].[dL].[Abu].[Dab].[Dab].T}$PEPTIDE1,PEPTIDE1,5:R3-11:R2$$$V2.0), in series [1], the “Log10 CFU/mL blood at 4 h, Mean” value is 5.26 Log10 CFU/mL blood; the “Δlog10 CFU/mL blood (mean)” value was −2.32 log10 CFU/mL blood; the “Log10 CFU/mL blood at 4 h, single mouse” value is 5.17 Log10 CFU/mL blood and 5.18 Log10 CFU/mL blood and 5.44 Log10 CFU/mL blood; the “Delta Log10 CFU/mL blood at 4 h, single mouse” value was -2.41 Log10 CFU/mL blood and -2.40 Log10 CFU/mL blood and -2.14 Log10 CFU/mL blood. In addition, in series [2], the “Kidney histopathology (SQS Score)” value is recorded as 0 (SQS 0 = no significant change (overall score, <1)) and the “Kidney histopathology, mice with the SQS score” value is recorded as 3/3. Further, in series [3], the “MIC A. baumannii ATCC 19606” value was found to be 4 µg/mL (≈ 3.5 µM). Moreover, the “MIC A. baumannii FADDI-AB030” value in [4] came to 1 µg/mL (≈ 0.874 µM). Moreover, in series [5], the “MIC A. baumannii FADDI-AB034” value was determined as 1 µg/mL (≈ 0.874 µM). Further, the “MIC P. aeruginosa ATCC 27853” value in series [6] worked out at 0.5 µg/mL (≈ 0.437 µM). Besides, the “MIC P. aeruginosa FADDI-PA025” value in [7] was found to be 2 µg/mL (≈ 1.75 µM). In addition, the “MIC P. aeruginosa FADDI-PA038” value in series [8] worked out at 1 µg/mL (≈ 0.874 µM). The “MIC K. pneumoniae FADDI-KP032” value in series [9] came to 0.25 µg/mL (≈ 0.219 µM). In addition, the “MIC K. pneumoniae FADDI-KP065” value in series [10] is recorded as 0.25 µg/mL (≈ 0.219 µM).

The values are drawn from paper PMC8956739, “A synthetic lipopeptide targeting top-priority multidrug-resistant Gram-negative pathogens” (Nature Communications, 2022).
